Test results: ChEMBL document CHEMBL1909046, “DrugMatrix in vitro pharmacology data”

Assays:
[1] = biological target: T1, Neuropeptide Y receptor type 2 (Homo sapiens, UniProt P49146); format: cell membranes, Membrane; conditions: kan-ts; note: in other assays of this panel Not Active means under 50% inhibition at 10 µM
T1 sequence (P49146 whole entry): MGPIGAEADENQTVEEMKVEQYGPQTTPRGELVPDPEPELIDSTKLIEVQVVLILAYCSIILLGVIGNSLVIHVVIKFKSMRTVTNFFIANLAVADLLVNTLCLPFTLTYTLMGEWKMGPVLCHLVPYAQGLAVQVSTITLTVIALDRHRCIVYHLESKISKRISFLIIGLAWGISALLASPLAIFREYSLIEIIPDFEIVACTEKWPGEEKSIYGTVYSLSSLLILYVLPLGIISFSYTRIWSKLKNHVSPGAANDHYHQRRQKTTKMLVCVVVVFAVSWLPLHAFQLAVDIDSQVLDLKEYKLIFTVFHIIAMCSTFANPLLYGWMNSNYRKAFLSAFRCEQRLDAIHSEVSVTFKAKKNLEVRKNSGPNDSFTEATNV

[2] = DRUGMATRIX: Sodium/nucleoside co-transporter radioligand binding (ligand: nitrobenzylthioinosine); format: cell membranes, Cavia porcellus, Dunkin-Hartley, Cerebral cortex, Membrane; conditions: Not Active = under 50% inhibition at 10 µM
[3] = biological target: T2, Interstitial collagenase (Homo sapiens, UniProt P03956); experiment: biochemical; format: tissue-based, Rheumatoid synovial fibroblasts;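 note: MMP-1 enzyme inhibition assay using a peptide substrate; in other assays of this panel Not Active means under 50% inhibition at 10 µM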
T2 sequence (P03956 whole entry): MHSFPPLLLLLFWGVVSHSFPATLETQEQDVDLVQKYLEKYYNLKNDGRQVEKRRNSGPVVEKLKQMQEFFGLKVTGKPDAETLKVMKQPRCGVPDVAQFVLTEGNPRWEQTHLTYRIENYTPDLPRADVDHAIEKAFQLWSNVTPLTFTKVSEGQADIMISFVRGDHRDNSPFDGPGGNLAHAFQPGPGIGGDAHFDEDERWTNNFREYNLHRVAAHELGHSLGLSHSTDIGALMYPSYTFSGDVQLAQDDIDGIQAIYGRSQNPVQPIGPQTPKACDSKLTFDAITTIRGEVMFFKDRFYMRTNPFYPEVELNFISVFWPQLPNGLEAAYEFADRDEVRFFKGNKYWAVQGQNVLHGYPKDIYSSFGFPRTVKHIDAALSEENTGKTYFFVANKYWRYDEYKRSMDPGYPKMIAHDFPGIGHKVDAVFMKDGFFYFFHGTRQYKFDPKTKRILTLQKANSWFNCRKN

[4] = DRUGMATRIX: Leukotriene, BLT (LTB4) radioligand binding (ligand: [3H]LTB4); format: cell membranes, Membrane; conditions: u-937; Not Active = under 50% inhibition at 10 µM
[5] = DRUGMATRIX: Glutamate, NMDA, Phencyclidine radioligand binding (ligand: [3H] TCP); format: cell membranes, Rattus norvegicus, Wistar, Cerebral cortex, Membrane; conditions: Not Active = under 50% inhibition at 10 µM
[6] = DRUGMATRIX: ATPase, Na+/K+ enzyme inhibition (substrate: ATP); format: tissue-based, Sus scrofa, Heart; conditions: Not Active = under 50% inhibition at 10 µM
[7] = biological target: T3, Cathepsin G (Homo sapiens, UniProt P08311); format: tissue-based; conditions: neutrophil;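 note: inhibition of Cathepsin G enzyme activity, tested on an AMC-conjugated peptide substrate; in other assays of this panel Not Active means under 50% inhibition at 10 µM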
T3 sequence (P08311 whole entry): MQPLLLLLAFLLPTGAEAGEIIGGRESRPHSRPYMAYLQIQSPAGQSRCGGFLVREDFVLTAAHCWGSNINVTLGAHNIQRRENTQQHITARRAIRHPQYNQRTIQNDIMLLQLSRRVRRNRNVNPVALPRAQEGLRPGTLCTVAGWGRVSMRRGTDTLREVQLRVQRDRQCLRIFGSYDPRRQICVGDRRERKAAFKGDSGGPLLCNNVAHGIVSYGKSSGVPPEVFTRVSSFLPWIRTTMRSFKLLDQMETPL

Row | Molecule | IC50 [1] | IC50 [2] | Ki [2] | IC50 [3] | IC50 [4] | Ki [4] | IC50 [5] | Ki [5] | IC50 [6] | Ki [6] | IC50 [7] | Ki [1] | Ki [3] | Ki [7] | IC50 ([7]; read-out: IC50) [nM]
1 | CCCCc1nc(Cl)c(CO)n1Cc1ccc(-c2ccccc2-c2nnn[nH]2)cc1 [LOSARTAN] | Not Active | Not Active | Not Active | Not Active | Not Active | Not Active | Not Active | Not Active | Not Active | Not Active | Not Active | – | – | – | –
2 | Sc1ncnc2nc[nH]c12 [MERCAPTOPURINE ANHYDROUS] | Not Active | Not Active | Not Active | Not Active | Not Active | Not Active | Not Active | Not Active | Not Active | Not Active | Not Active | – | – | – | –
3 | C[C@](N)(Cc1ccc(O)c(O)c1)C(=O)O [METHYLDOPA] | Not Active | Not Active | Not Active | Not Active | Not Active | Not Active | Not Active | Not Active | Not Active | Not Active | Not Active | – | – | – | –
4 | C[C@]12CCC(=O)C=C1CC[C@@H]1[C@@H]2CC[C@@]2(C)[C@H]1CC[C@]2(C)O [METHYLTESTOSTERONE] | Not Active | Not Active | Not Active | Not Active | Not Active | Not Active | Not Active | Not Active | Not Active | Not Active | Not Active | – | – | – | –
5 | Cc1ccccc1N1C(=O)c2cc(S(N)(=O)=O)c(Cl)cc2NC1C (centres undefined) [METOLAZONE] | Not Active | Not Active | Not Active | Not Active | Not Active | Not Active | Not Active | Not Active | Not Active | Not Active | Not Active | – | – | – | –
6 | COCCc1ccc(OCC(O)CNC(C)C)cc1 (centres undefined) [METOPROLOL] | Not Active | Not Active | Not Active | Not Active | Not Active | Not Active | Not Active | Not Active | Not Active | Not Active | Not Active | – | – | – | –
7 | CCn1cc(C(=O)O)c(=O)c2cc(F)c(N3CCNCC3)cc21 [NORFLOXACIN] | Not Active | Not Active | Not Active | Not Active | Not Active | Not Active | Not Active | Not Active | Not Active | Not Active | Not Active | – | – | – | –
8 | NC1=NC(=O)C(c2ccccc2)O1 (centres undefined) [PEMOLINE] | Not Active | Not Active | Not Active | Not Active | Not Active | Not Active | Not Active | Not Active | Not Active | Not Active | Not Active | – | – | – | –
9 | Nc1nc2c(ncn2CCC(CO)CO)c(=O)[nH]1 [PENCICLOVIR] | Not Active | Not Active | Not Active | Not Active | Not Active | Not Active | Not Active | Not Active | Not Active | Not Active | Not Active | – | – | – | –
10 | C=C(C)C1(O)OC(=O)C=C1OC (centres undefined) [PENICILLIC ACID] | Not Active | Not Active | Not Active | Not Active | Not Active | Not Active | Not Active | Not Active | Not Active | Not Active | Not Active | – | – | – | –
11 | CC1(C)S[C@@H]2[C@H](NC(=O)Cc3ccccc3)C(=O)N2[C@H]1C(=O)O [PENICILLIN G] | Not Active | Not Active | Not Active | Not Active | Not Active | Not Active | Not Active | Not Active | Not Active | Not Active | Not Active | – | – | – | –
12 | CCCN1C[C@H](CSC)C[C@@H]2c3cccc4[nH]cc(c34)C[C@H]21 [PERGOLIDE] | Not Active | Not Active | Not Active | Not Active | Not Active | Not Active | Not Active | Not Active | Not Active | Not Active | Not Active | – | – | – | –
13 | C1CCC(C(CC2CCCCN2)C2CCCCC2)CC1 (centres undefined) [PERHEXILINE] | Not Active | Not Active | Not Active | Not Active | Not Active | Not Active | Not Active | Not Active | Not Active | Not Active | Not Active | – | – | – | –
14 | CCOc1ccc(NC(C)=O)cc1 [PHENACETIN] | Not Active | Not Active | Not Active | Not Active | Not Active | Not Active | Not Active | Not Active | Not Active | Not Active | Not Active | – | – | – | –
15 | Cc1ccc(N(CC2=NCCN2)c2cccc(O)c2)cc1 [PHENTOLAMINE] | Not Active | Not Active | Not Active | Not Active | Not Active | Not Active | Not Active | Not Active | Not Active | Not Active | Not Active | – | – | – | –
16 | CNNCc1ccc(C(=O)NC(C)C)cc1 [PROCARBAZINE] | Not Active | Not Active | Not Active | Not Active | Not Active | Not Active | Not Active | Not Active | Not Active | Not Active | Not Active | – | – | – | –
17 | CN(C)CCCN1c2ccccc2Sc2ccccc21 [PROMAZINE] | Not Active | Not Active | Not Active | Not Active | Not Active | Not Active | Not Active | Not Active | Not Active | Not Active | Not Active | – | – | – | –
18 | CC(O)CO (centres undefined) [PROPYLENE GLYCOL] | Not Active | Not Active | Not Active | Not Active | Not Active | Not Active | Not Active | Not Active | Not Active | Not Active | Not Active | – | – | – | –
19 | CADMIUM ACETATE | Not Active | Not Active | Not Active | Not Active | Not Active | Not Active | Not Active | Not Active | Not Active | Not Active | Not Active | Not Active | Not Active | Not Active | –
20 | LEAD (II) ACETATE | Not Active | Not Active | Not Active | Not Active | Not Active | Not Active | Not Active | Not Active | Not Active | Not Active | Not Active | Not Active | Not Active | Not Active | –
21 | LIPOPOLYSACCHARIDE E. COLI O55:B5 | Not Active | Not Active | Not Active | Not Active | Not Active | Not Active | Not Active | Not Active | Not Active | Not Active | – | Not Active | Not Active | – | 852
